The structures appear in SMILES notation.

For data set [1], the system named is serotonin release in the cortex. Particulars: after systemic administration; cited from earlier work.
Data set [2] has as its system serotonin release in the dorsal raphe nucleus. The settings on record: rat; combined with paroxetine; cited from earlier work.

By melting point is commonly meant the temperature of the solid-liquid transition. For the compound `CCOC(=O)N1Cc2sc3ncn(CCN4CCN(c5ncccn5)CC4)c(=O)c3c2C1`, the melting point is 166 °C.

`CCOC(=O)N1Cc2sc3ncn(CCN4CCN(c5ccccc5C)CC4)c(=O)c3c2C1`: the melting point came out at 152 °C.

With `CCOC(=O)N1Cc2sc3ncn(CCN4CCN(c5ccccc5Cl)CC4)c(=O)c3c2C1`, the melting point came to 172 °C.

Take `CCOC(=O)N1Cc2sc3ncn(CCCN4CCN(c5ccccc5C#N)CC4)c(=O)c3c2C1`: the melting point turned out to be 190 °C.

As to `CCOC(=O)N1Cc2sc3ncn(CCN4CCN(c5cccc6c5CCC6)CC4)c(=O)c3c2C1`, the melting point was determined as 149 °C.

Compound `CCOC(=O)N1Cc2sc3ncn(CCN4CCN(c5cccc6ccccc56)CC4)c(=O)c3c2C1` returned a melting point of 190 to 192 °C.

Take `COc1ccc(NC(=O)c2ccc(-c3ccc(-c4noc(C)n4)cc3C)cc2)cc1N1CCN(C)CC1` [GR 127 935]: in data set [1], the “serotonin release in the cortex” value is “reduces serotonin release”. Further, in data set [2], the “effect of paroxetine on serotonin release in the dorsal raphe nucleus” value was “potentiated”.

(Values after patent publication US6355647B1, “3-substituted 3,4,5,7-tetrahedropyrrolo[3′,4′:4,5]thieno-[2,3-d]pyrimidine derivatives, their preparation and use” (Abbott Laboratories, priority 1997, dated 2002).)
